Measurements reported in patent US4370326A, “Cephem compounds and composition” (Fujisawa Pharmaceutical Co., Ltd., priority 1977, dated 1983).
≈ marks a conversion by molar mass, not a printed value.

How the values were obtained:
Assay in all cases: In vitro antibacterial activity, two-fold agar-plate dilution method
Type in all cases: cell-based
[1] = test system: Escherichia coli 324; conditions: heart infusion agar, 37° C., 20 hours, 10^8 viable cells per ml, read-out: minimal inhibitory concentration (MIC)
Protocol: (§1) In vitro antibacterial activity was determined by the two-fold agar-plate dilution method as described below. One loopful of an overnight culture of each test strain in Trypticase-soy broth (10^8 viable cells per ml.) was streaked on heart infusion agar (HI-agar) containing graded concentrations of antibiotics, and the minimal inhibitory concentration (MIC) was expressed in terms of μg/ml. after incubation at 37° C. for 20 hours. [drawing 15]

[2] = test system: Klebsiella aerogenes 417; conditions: heart infusion agar, 37° C., 20 hours, 10^8 viable cells per ml, read-out: minimal inhibitory concentration (MIC)
Protocol: as §1

[3] = test system: Proteus mirabilis 520; conditions: heart infusion agar, 37° C., 20 hours, 10^8 viable cells per ml, read-out: minimal inhibitory concentration (MIC)
Protocol: as §1

[4] = test system: Proteus vulgaris 616; conditions: heart infusion agar, 37° C., 20 hours, 10^8 viable cells per ml, read-out: minimal inhibitory concentration (MIC)
Protocol: as §1

[5] = test system: Salmonella enteritidis; conditions: Salmonella enterica, heart infusion agar, 37° C., 20 hours, 10^8 viable cells per ml, read-out: minimal inhibitory concentration (MIC)
Protocol: as §1

## Nc1nc(C(=O)C(=O)NC2C(=O)N3C(C(=O)O)=CCSC23)cs1 (centres unmarked) [Compound 1]
[1]
  MIC: 1.56 µg/mL (≈ 4.4 µM)
[2]
  MIC: 0.1 µg/mL (≈ 0.282 µM)
[3]
  MIC: 0.78 µg/mL (≈ 2.2 µM)
[4]
  MIC: 12.5 µg/mL (≈ 35.3 µM)
[5]
  MIC: 1.56 µg/mL (≈ 4.4 µM)

## Nc1nc(CC(=O)NC2C(=O)N3C(C(=O)O)=CCSC23)cs1 (centres unmarked) [Compound 2]
[1]
  MIC: 1.56 µg/mL (≈ 4.58 µM)
[2]
  MIC: 0.2 µg/mL (≈ 0.588 µM)
[3]
  MIC: 0.39 µg/mL (≈ 1.15 µM)
[4]
  MIC: 6.25 µg/mL (≈ 18.4 µM)
[5]
  MIC: 1.56 µg/mL (≈ 4.58 µM)

## Nc1nc(C(N)C(=O)NC2C(=O)N3C(C(=O)O)=CCSC23)cs1 (centres unmarked) [Compound 3]
[1]
  MIC: 0.78 µg/mL (≈ 2.19 µM)
[2]
  MIC: 0.39 µg/mL (≈ 1.1 µM)
[3]
  MIC: 0.78 µg/mL (≈ 2.19 µM)
[4]
  MIC: 1.56 µg/mL (≈ 4.39 µM)
[5]
  MIC: 3.13 µg/mL (≈ 8.81 µM)

## Nc1nc(C(O)C(=O)NC2C(=O)N3C(C(=O)O)=CCSC23)cs1 (centres unmarked) [Compound 4]
[1]
  MIC: 1.56 µg/mL (≈ 4.38 µM)
[2]
  MIC: 0.78 µg/mL (≈ 2.19 µM)
[3]
  MIC: 1.56 µg/mL (≈ 4.38 µM)
[4]
  MIC: 12.5 µg/mL (≈ 35.1 µM)
[5]
  MIC: 3.13 µg/mL (≈ 8.78 µM)
